The source of these data is patent publication US4755522A, “Derivatives of N-[3-(2,4,6-trimethoxybenzoyl)propyl]piperidine, and their use in therapeutics” (priority 1986, dated 1988).

One assay concerns arterial pressure. The note with it: prior-technique compound; cited from earlier work.
The test system of another assay is man. Briefly: Anti-depressant effect in man. The format is in vivo.
For assay [1], the system named is arrhythmias caused by I.V. injection of adrenaline. Nature of the assay: Arrhythmias caused by I.V. adrenaline in dogs with coronary artery previously ligatured. It counts as in vivo, dog.
A further assay concerns intergroup aggressivity. Nature of the assay: Intergroup aggressivity. The note with it: in vivo. Here is the method:
(§1) The compound of example 2 in solution in distilled water (pH 5.5 to 6.0) was administered by intraperitoneal route at a rate of 20 ml/kg in mice (male, NMRI, C.E.R. January) and of 5 ml/kg to rats (male, CD1, Sprague Dawley, Charles River).

The next assay relates to reserpinic hypothermia. Briefly: Reserpinic hypothermia. The note with it: in vivo. The method, then:
as §1

Assay [2] relates to amphetaminic stereotypies. Briefly: Amphetaminic stereotypies in the rat. The format is in vivo. Here is the method:
as §1

Another assay concerns isoprenaline. Nature of the assay: Effects of isoprenaline on arterial pressure and cardiac rate after the compound (dog). The note with it: after CRL 41,390. The format is in vivo. Here is the method: (§2) 3 dogs (average weight, 14 kg) anaesthetized with nembutal, received the CRL 41,390 by intra-duodenal route, at successive doses of 0.1-0.5-1-2.5-5-10-20 mg/kg, then a supplementary dose of 10 mg/kg I.V.

The test system of the next assay is noradrenaline. Nature of the assay: Hypertension with noradrenaline after the compound (dog). It counts as in vivo. The note with it: after CRL 41,390. The method, then: (§3) 3 dogs (average weight, 12 kg) anaesthetized with nembutal, receive the compound by intra-duodenal route at successive doses of 0.1-0.5-2.5-10 and 20 mg/kg.
as §2
Hypertension to noradrenaline is not modified: at 2 mcg/kg of noradrenaline, the systolic arterial pressure passes, after administration of the product, from 160 to 290 mmHg/161 to 289 mmHg in the control.

In another assay the test system is awakened dog. Briefly: Anti-arrhythmic action on the awakened dog. It counts as in vivo.
Another assay deals with cardio-vascular system. Briefly: Action on the cardio-vascular system in the anaesthetized dog. It counts as in vivo. The note with it: for minimal effective dose: Canis lupus familiaris, read-out: dose from which heart rate is significantly reduced. The method, then:
(b) Action on the cardio-vascular system (in the dog).
as §3
The arterial pressure, the cardiac rate, the femoral arterial flow, the vertebral arterial flow, the rectal and skin temperatures are all measured. The coloration of the skin is observed.
as §2
The arterial pressure, the cardiac frequency, the femoral arterial flow, the vertebral arterial flow, the rectal and cutaneous temperatures, were measured. The coloration of the skin was observed.

The subject of assay [3] is arrhythmias with aconitine. Nature of the assay: Arrhythmias with aconitine in the guinea-pig. The format is in vivo. Here is the method: The compound was administered by intravenous route at a dose of 10 mg/kg to a series of 10 albino guinea-pigs of 380 to 495 g, anaesthetized with urethane.
5 minutes later, they receive an I.V. perfusion of the product causing arrhythmia at a dosage of 0.09 mg/min. in a volume of 0.6 ml/min.
The compound is compared with quinidine at a dose of 5 mg/kg I>V> and with a series of controls.
Lots are drawn for the treatments.
B--Action on arrhythmias with aconitine.

[4] abbreviates: I.D. 0.1-20 mg/kg then 10 mg/kg I.V.

Structures can show the parent of a compound that is named as a salt. Where two headings read alike, the source gives them in different places.

For the molecule `COc1cc(OC)c(C(=O)CCCN2CCCC(C)C2)c(OC)c1` (centres unmarked) [CRL 41,034, (2,4,6-trimethoxyphenyl)-[3-(3-methylpiperidino)propyl] ketone], in the assay with arterial pressure, the “effect on the arterial pressure” value is given as “hypotensive effect”.

For the molecule `CCOC(=O)C1CCCN(CCCC(=O)c2c(OC)cc(OC)cc2OC)C1` (centres unmarked) [CRL 41,389, ethyl N-[3-(2,4,6-trimethoxybenzoyl)propyl] nipecotate hydrochloride], in the assay on man, the effect in man entry was “anti-depressant stimulant”. Further, the minimal effective dose in assay [1] (Canis lupus familiaris, iv, read-out: dose from which arrhythmias are reduced) came out at 2.5 mg/kg. In addition, the “arrhythmias caused by I.V. adrenaline” value in assay [1] (from 2.5 mg/kg) was “reduces arrhythmias”. The intergroup aggressivity result in the assay with intergroup aggressivity is recorded as “reduction of intergroup aggressivity”. In addition, the reserpinic hypothermia result in the assay on reserpinic hypothermia is “aggravation of reserpinic hypothermia”. Further, the amphetaminic stereotypies entry in [2] was “moderate potentialization”.

Turning to `COc1cc(OC)c(C(=O)CCCN2CCCC(C(=O)O)C2)c(OC)c1.Cl` (centres unmarked) [CRL 41,390, N-[3-(2,4,6-trimethoxybenzoyl)propyl]-3-piperidine carboxylic acid hydrochloride], the “diastolic arterial pressure after the product, with isoprenaline” value with isoprenaline (10 mcg/kg isoprenaline, control 35) is 44 mmHg. Moreover, the “cardiac frequency after the product, with isoprenaline” value in the assay on isoprenaline (10 mcg/kg isoprenaline, control 272) turned out to be 250 beats/min. Also, the “effects of isoprenaline on diastolic arterial pressure and cardiac frequency” value in the assay with isoprenaline is listed as “slightly reduced”. Moreover, the “diastolic arterial pressure after the product, before isoprenaline” value in the assay on isoprenaline (control 135) is 131 mmHg. In the assay with isoprenaline (control 185), the “cardiac frequency after the product, before isoprenaline” value worked out at 148 beats/min. Besides, in the assay with noradrenaline (2 mcg/kg noradrenaline, control 289), the “systolic arterial pressure after the product, with noradrenaline” value is on record as 290 mmHg. The hypertension to noradrenaline entry in the assay on noradrenaline is reported as “not modified”. Also, the “systolic arterial pressure after the product, before noradrenaline” value with noradrenaline (control 161) turned out to be 160 mmHg. In the assay with awakened dog, the anti-arrhythmic action result is on record as “no anti-arrhythmic action”. The “effect on vertebral flow” value in the assay on cardio-vascular system (20 mg/kg) is “reduction in the vertebral flow”. In addition, the “effect on femoral flow” value in the assay with cardio-vascular system (20 mg/kg, particularly in a dog) is on record as “slight increase in the femoral flow”. Besides, the minimal effective dose in the assay with cardio-vascular system (intraduodenal) stood at 20 mg/kg. Also, the minimal effective dose in the assay on cardio-vascular system (iv, I.V.) worked out at 2.5 mg/kg. In the assay on cardio-vascular system (setting [4]), the “effect on rectal and cutaneous temperatures” value is listed as “moderately reduced”; the “effect on the arterial pressure” value is on record as “no effect on the arterial pressure”. Moreover, in the assay with cardio-vascular system (from I.V. 2.5 mg/kg and intraduodenal 20 mg/kg), the “effect on heart rate” value was “significantly reduces the heart rate”.

As for `C=C[C@H]1C[N@@]2CC[C@H]1C[C@@H]2[C@@H](O)c1ccnc2ccc(OC)cc12` [quinidine, reference compound], in assay [3] (quinidine 5 mg/kg I.V.), the “appearance of ventricular tachycardia due to aconitine” value is reported as “significantly retards only the appearance of ventricular tachycardia” and the “retardation of ventricular tachycardia (average)” value is listed as “+30%”. For the same molecule, the “retardation compared with the compound according to the invention” value in assay [3] (quinidine 5 mg/kg I.V. vs compound 10 mg/kg I.V.) was “significantly less than that observed with the compound according to the invention”.
